Experimental data as given in ChEMBL document CHEMBL4177763, “Development of Macrocyclic Peptidomimetics Containing Constrained α,α-Dialkylated Amino Acids with Potent and Selective Activity at Human Melanocortin Receptors” (J Med Chem, 2018).
Activity calls are given as the source filed them. No cut-off for these calls is given here. Bridge positions count the residues as written; N and C are the ends. Square brackets hold non-standard residues; d marks the D form. Peptide text beside a SMILES is read from it. d2Nal = N[C@H](Cc1ccc2ccccc2c1)C(=O)O; Ac6c = NC1(C(=O)O)CCCCC1; Ac5c = NC1(C(=O)O)CCCC1; Ac4c = NC1(C(=O)O)CCC1; Aib = CC(C)(N)C(=O)O

Legend:
[1] = target: T1, Melanocyte-stimulating hormone receptor (Homo sapiens, UniProt Q01726); assay: Displacement of [125I]-NDP-alpha-MSH from human MC1R expressed in HEK293 cells after 40 mins by gamma counting method; assay type: cell-based
Target sequence in this assay (Q01726 whole entry): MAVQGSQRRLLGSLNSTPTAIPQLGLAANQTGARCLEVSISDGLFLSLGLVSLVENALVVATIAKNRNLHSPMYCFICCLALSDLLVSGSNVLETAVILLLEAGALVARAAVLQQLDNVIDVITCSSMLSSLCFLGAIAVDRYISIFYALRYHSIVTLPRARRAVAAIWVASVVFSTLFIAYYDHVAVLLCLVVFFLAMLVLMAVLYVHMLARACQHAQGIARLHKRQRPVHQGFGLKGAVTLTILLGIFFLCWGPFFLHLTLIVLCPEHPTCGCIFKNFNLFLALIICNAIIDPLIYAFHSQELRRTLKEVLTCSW

[2] = target: T1, Melanocyte-stimulating hormone receptor; assay: Agonist activity at human MC1R expressed in HEK293 cells assessed as induction of intracellular cAMP accumulation measured after 3 mins; assay type: functional, cell-based
Target sequence in this assay (Q01726 whole entry): as above

Melanocortin receptor 3 [3] = target: T2, Melanocortin receptor 3 (Homo sapiens, UniProt P41968); assay: Displacement of [125I]-NDP-alpha-MSH from human MC3R expressed in HEK293 cells after 40 mins by gamma counting method; assay type: cell-based
T2 sequence (P41968 whole entry): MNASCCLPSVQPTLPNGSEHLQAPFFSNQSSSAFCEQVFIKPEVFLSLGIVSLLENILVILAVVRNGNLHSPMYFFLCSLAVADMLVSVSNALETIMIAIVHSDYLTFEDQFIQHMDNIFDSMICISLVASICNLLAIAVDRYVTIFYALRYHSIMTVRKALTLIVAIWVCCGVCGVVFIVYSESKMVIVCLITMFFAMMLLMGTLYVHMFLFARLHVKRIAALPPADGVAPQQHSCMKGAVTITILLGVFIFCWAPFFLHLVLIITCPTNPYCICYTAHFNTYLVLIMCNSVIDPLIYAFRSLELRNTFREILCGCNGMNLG

Melanocortin receptor 3 [4] = target: T2, Melanocortin receptor 3; assay: Agonist activity at human MC3R expressed in HEK293 cells assessed as induction of intracellular cAMP accumulation after 3 mins; assay type: functional, cell-based
Melanocortin receptor 3 [5] = target: T2, Melanocortin receptor 3; assay: Agonist activity at human MC3R expressed in HEK293 cells assessed as induction of intracellular cAMP accumulation at 10 uM after 3 mins relative to MT-2; assay type: functional, cell-based
Melanocortin receptor 4 [6] = target: T3, Melanocortin receptor 4 (Homo sapiens, UniProt P32245); assay: Displacement of [125I]-NDP-alpha-MSH from human MC4R expressed in HEK293 cells after 40 mins by gamma counting method; assay type: cell-based
T3 sequence (P32245 whole entry): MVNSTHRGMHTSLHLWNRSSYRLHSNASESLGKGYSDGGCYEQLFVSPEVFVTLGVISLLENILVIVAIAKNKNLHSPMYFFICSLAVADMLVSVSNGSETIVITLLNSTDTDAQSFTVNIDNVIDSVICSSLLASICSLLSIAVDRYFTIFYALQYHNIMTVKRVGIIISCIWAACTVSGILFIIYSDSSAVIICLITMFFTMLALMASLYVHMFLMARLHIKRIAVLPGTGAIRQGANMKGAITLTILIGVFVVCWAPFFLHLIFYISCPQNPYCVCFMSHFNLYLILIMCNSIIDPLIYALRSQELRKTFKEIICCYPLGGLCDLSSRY

Melanocortin receptor 4 [7] = target: T3, Melanocortin receptor 4; assay: Agonist activity at human MC4R expressed in HEK293 cells assessed as induction of intracellular cAMP accumulation after 3 mins; assay type: functional, cell-based
Melanocortin receptor 4 [8] = target: T3, Melanocortin receptor 4; assay: Agonist activity at human MC4R expressed in HEK293 cells assessed as induction of intracellular cAMP accumulation at 10 uM after 3 mins relative to MT-2; assay type: functional, cell-based
Melanocortin receptor 5 [9] = target: T4, Melanocortin receptor 5 (Homo sapiens, UniProt P33032); assay: Displacement of [125I]-NDP-alpha-MSH from human MC5R expressed in HEK293 cells after 40 mins by gamma counting method; assay type: cell-based
T4 sequence (P33032 whole entry): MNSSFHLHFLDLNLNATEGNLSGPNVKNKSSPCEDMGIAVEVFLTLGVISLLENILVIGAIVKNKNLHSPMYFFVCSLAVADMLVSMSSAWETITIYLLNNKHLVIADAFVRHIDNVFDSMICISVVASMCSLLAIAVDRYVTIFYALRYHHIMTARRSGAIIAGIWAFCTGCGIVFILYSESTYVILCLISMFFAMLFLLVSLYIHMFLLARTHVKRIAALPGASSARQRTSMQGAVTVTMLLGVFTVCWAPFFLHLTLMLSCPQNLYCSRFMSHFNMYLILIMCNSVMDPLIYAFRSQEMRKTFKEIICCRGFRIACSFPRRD

Melanocortin receptor 5 [10] = target: T4, Melanocortin receptor 5; assay: Agonist activity at human MC5R expressed in HEK293 cells assessed as induction of intracellular cAMP accumulation after 3 mins; assay type: functional, cell-based
Melanocortin receptor 5 [11] = target: T4, Melanocortin receptor 5; assay: Agonist activity at human MC5R expressed in HEK293 cells assessed as induction of intracellular cAMP accumulation at 10 uM after 3 mins relative to MT-2; assay type: functional, cell-based
[12] = target: T1, Melanocyte-stimulating hormone receptor; assay: Agonist activity at human MC1R expressed in HEK293 cells assessed as induction of intracellular cAMP accumulation at 10 uM measured after 3 mins relative to MT-2; assay type: functional, cell-based
Target sequence in this assay (Q01726 whole entry, looked up): as the sequence (Q01726 whole entry) above

Homo sapiens [13] = organism: Homo sapiens; assay: Selectivity ratio of IC50 for human MC1R to IC50 for human MC3R
Homo sapiens [14] = organism: Homo sapiens; assay: Selectivity ratio of IC50 for human MC5R to IC50 for human MC3R
Melanocortin receptor 5 [15] = target: T4, Melanocortin receptor 5; assay: Displacement of [125I]-NDP-alpha-MSH from human MC5R expressed in HEK293 cells at 10 uM after 40 mins by gamma counting method; assay type: cell-based

Row | Compound | IC50 [1] [nM] | EC50 [2] [nM] | IC50 (Melanocortin receptor 3 [3]) [nM] | EC50 (Melanocortin receptor 3 [4]; read-out: EC50) [nM] | max activation (Melanocortin receptor 3 [5]) [%] | IC50 (Melanocortin receptor 4 [6]) [nM] | EC50 (Melanocortin receptor 4 [7]; read-out: EC50) [nM] | max activation (Melanocortin receptor 4 [8]) [%] | IC50 (Melanocortin receptor 5 [9]) [nM] | EC50 (Melanocortin receptor 5 [10]; read-out: EC50) [nM] | max activation (Melanocortin receptor 5 [11]) [%] | max activation [12] [%] | EC50 (Melanocortin receptor 5 [10]; hek293) | EC50 (Melanocortin receptor 3 [4]; hek293) | EC50 (Melanocortin receptor 4 [7]; hek293) | Ratio IC50 (Homo sapiens [13]) | Ratio IC50 (Homo sapiens [14]) | Activity (Melanocortin receptor 5 [15])
1 | N=C(N)NCCC[C@@H]1NC(=O)[C@@H](Cc2ccccc2)NC(=O)[C@H](Cc2c[nH]cn2)NC(=O)C2(CCCCC2)NC(=O)CC[C@@H](C(N)=O)NC(=O)[C@H](Cc2c[nH]c3ccccc23)NC1=O | 99 | 57 | 74 | 4.1 | 100 | > 1000 | 120 | 100 | 630 | 1.9 | 100 | 100 | – | – | – | – | – | –
2 | N=C(N)NCCC[C@@H]1NC(=O)[C@@H](Cc2ccccc2)NC(=O)[C@H](Cc2c[nH]cn2)NC(=O)C2(CCC2)NC(=O)C[C@@H](C(N)=O)NC(=O)[C@H](Cc2c[nH]c3ccccc23)NC1=O | > 1000 | 60 | > 1000 | 276 | 100 | > 1000 | 720 | 43 | > 1000 | – | 0 | 100 | Not Active | – | – | – | – | –
3 | N=C(N)NCCC[C@@H]1NC(=O)[C@@H](Cc2ccc3ccccc3c2)NC(=O)[C@H](Cc2c[nH]cn2)NC(=O)C2(CCC2)NC(=O)CC[C@@H](C(N)=O)NC(=O)[C@H](Cc2c[nH]c3ccccc23)NC1=O ([Ac4c]H[d2Nal]RWE-NH2; lactam N-6) | – | – | – | – | – | – | – | – | – | – | – | – | Not Active | Not Active | Not Active | – | – | –
4 | N=C(N)NCCC[C@@H]1NC(=O)[C@@H](Cc2ccccc2)NC(=O)[C@H](Cc2c[nH]cn2)NC(=O)C2(CCC2)NC(=O)CC[C@@H](C(N)=O)NC(=O)[C@H](Cc2c[nH]c3ccccc23)NC1=O ([Ac4c]H[dF]RWE-NH2; lactam N-6) | 55 | 25 | 55 | – | 100 | > 1000 | 150 | 75 | 380 | 2 | 100 | 100 | – | – | – | 7 | 1 | –
5 | N=C(N)NCCC[C@@H]1NC(=O)[C@@H](Cc2ccc3ccccc3c2)NC(=O)[C@H](Cc2c[nH]cn2)NC(=O)C2(CCCC2)NC(=O)CC[C@@H](C(N)=O)NC(=O)[C@H](Cc2c[nH]c3ccccc23)NC1=O ([Ac5c]H[d2Nal]RWE-NH2; lactam N-6) | 43 | 108 | – | – | 82 | 100 | 130 | 74 | > 1000 | – | 0 | 100 | Not Active | – | – | – | – | –
6 | N=C(N)NCCC[C@@H]1NC(=O)[C@@H](Cc2ccccc2)NC(=O)[C@H](Cc2c[nH]cn2)NC(=O)C2(CCCC2)NC(=O)C[C@@H](C(N)=O)NC(=O)[C@H](Cc2c[nH]c3ccccc23)NC1=O ([Ac5c]H[dF]RWD-NH2; lactam N-6) | – | – | – | – | – | – | – | – | – | – | – | – | Not Active | – | – | – | – | inactive
7 | N=C(N)NCCC[C@@H]1NC(=O)[C@@H](Cc2ccccc2)NC(=O)[C@H](Cc2c[nH]cn2)NC(=O)C2(CCCC2)NC(=O)CC[C@@H](C(N)=O)NC(=O)[C@H](Cc2c[nH]c3ccccc23)NC1=O ([Ac5c]H[dF]RWE-NH2; lactam N-6) | 93 | – | 59 | – | 100 | > 1000 | 1000 | 100 | – | – | 0 | 100 | Not Active | – | – | – | – | inactive
8 | N=C(N)NCCC[C@@H]1NC(=O)[C@@H](Cc2ccc3ccccc3c2)NC(=O)[C@H](Cc2c[nH]cn2)NC(=O)C2(CCCCC2)NC(=O)CC[C@@H](C(N)=O)NC(=O)[C@H](Cc2c[nH]c3ccccc23)NC1=O ([Ac6c]H[d2Nal]RWE-NH2; lactam N-6) | – | – | – | – | – | – | – | – | – | – | – | – | Not Active | Not Active | Not Active | – | – | –
9 | N=C(N)NCCC[C@@H]1NC(=O)[C@@H](Cc2ccccc2)NC(=O)[C@H](Cc2c[nH]cn2)NC(=O)C2(CCCCC2)NC(=O)C[C@@H](C(N)=O)NC(=O)[C@H](Cc2c[nH]c3ccccc23)NC1=O ([Ac6c]H[dF]RWD-NH2; lactam N-6) | – | – | – | – | – | – | – | – | – | – | – | – | Not Active | – | – | – | – | –

Next, values leading:

Row | IC50 [1] [nM] | EC50 [2] [nM] | IC50 (Melanocortin receptor 3 [3]) [nM] | EC50 (Melanocortin receptor 3 [4]; read-out: EC50) [nM] | max activation (Melanocortin receptor 3 [5]) [%] | IC50 (Melanocortin receptor 4 [6]) [nM] | EC50 (Melanocortin receptor 4 [7]; read-out: EC50) [nM] | max activation (Melanocortin receptor 4 [8]) [%] | IC50 (Melanocortin receptor 5 [9]) [nM] | EC50 (Melanocortin receptor 5 [10]; read-out: EC50) [nM] | max activation (Melanocortin receptor 5 [11]) [%] | max activation [12] [%] | EC50 (Melanocortin receptor 5 [10]; hek293) | EC50 (Melanocortin receptor 3 [4]; hek293) | EC50 (Melanocortin receptor 4 [7]; hek293) | Ratio IC50 (Homo sapiens [13]) | Ratio IC50 (Homo sapiens [14]) | Activity (Melanocortin receptor 5 [15]) | Compound
10 | 140 | 16 | 3.9 | 76 | 60 | 81 | 3.2 | 67 | > 1000 | 170 | 100 | 100 | – | – | – | – | – | – | N=C(N)NCCC[C@@H]1NC(=O)[C@@H](Cc2ccc3ccccc3c2)NC(=O)[C@H](Cc2c[nH]cn2)NC(=O)C2(CCCCC2)NC(=O)C[C@@H](C(N)=O)NC(=O)[C@H](Cc2c[nH]c3ccccc23)NC1=O
11 | 112 | 48 | 5.1 | 3.2 | 50 | 320 | 270 | 70 | > 1000 | 560 | 100 | 100 | – | – | – | – | – | – | N=C(N)NCCC[C@@H]1NC(=O)[C@@H](Cc2ccc3ccccc3c2)NC(=O)[C@H](Cc2c[nH]cn2)NC(=O)C2(CCC2)NC(=O)C[C@@H](C(N)=O)NC(=O)[C@H](Cc2c[nH]c3ccccc23)NC1=O
12 | 290 | 14 | 16 | 1.9 | 42 | 73 | 110 | 67 | 160 | 96 | 100 | 100 | – | – | – | – | – | – | N=C(N)NCCC[C@@H]1NC(=O)[C@@H](Cc2ccc3ccccc3c2)NC(=O)[C@H](Cc2c[nH]cn2)NC(=O)C2(CCCC2)NC(=O)C[C@@H](C(N)=O)NC(=O)[C@H](Cc2c[nH]c3ccccc23)NC1=O
13 | 180 | 67 | – | 73 | 83 | 44 | 6.7 | 100 | 165 | 18 | 24 | 100 | – | – | – | – | – | – | CC1(C)NC(=O)C[C@@H](C(N)=O)NC(=O)[C@H](Cc2c[nH]c3ccccc23)NC(=O)[C@H](CCCNC(=N)N)NC(=O)[C@@H](Cc2ccc3ccccc3c2)NC(=O)[C@H](Cc2c[nH]cn2)NC1=O ([Aib]H[d2Nal]RWD-NH2; lactam N-6)
14 | – | – | – | – | – | – | – | – | – | – | – | – | Not Active | – | – | – | – | – | CC1(C)NC(=O)CC[C@@H](C(N)=O)NC(=O)[C@H](Cc2c[nH]c3ccccc23)NC(=O)[C@H](CCCNC(=N)N)NC(=O)[C@@H](Cc2ccc3ccccc3c2)NC(=O)[C@H](Cc2c[nH]cn2)NC1=O ([Aib]H[d2Nal]RWE-NH2; lactam N-6)
15 | 601 | 87 | – | 76 | 100 | 5.2 | 6.7 | 100 | > 1000 | 140 | 100 | 100 | – | – | – | – | – | – | CC1(C)NC(=O)C[C@@H](C(N)=O)NC(=O)[C@H](Cc2c[nH]c3ccccc23)NC(=O)[C@H](CCCNC(=N)N)NC(=O)[C@@H](Cc2ccccc2)NC(=O)[C@H](Cc2c[nH]cn2)NC1=O ([Aib]H[dF]RWD-NH2; lactam N-6)
